Experimental data from patent US12421249B2, “Inhibitors of APOL1 and methods of using same” (Vertex Pharmaceuticals Incorporated, priority 2020, dated 2025).
Read-outs that look alike come from different tables or passages of the source.

Assays:
APOL1 G1 = molecular target: T1, APOL1 G1 (Homo sapiens, UniProt O14791, I384M/S342G); experiment: Trypanosoma brucei brucei Lysis Assay Using APOL1 Recombinant Protein (AlamarBlue viability readout); format: cell-based; conditions: for IC50: IP50 = IC50 for cell proliferation, read-out: Trypanosome Assay IP50; for Emax: read-out: Trypanosome Assay Max Activity (%)
T1 sequence (O14791 28-398 S342G/I384M): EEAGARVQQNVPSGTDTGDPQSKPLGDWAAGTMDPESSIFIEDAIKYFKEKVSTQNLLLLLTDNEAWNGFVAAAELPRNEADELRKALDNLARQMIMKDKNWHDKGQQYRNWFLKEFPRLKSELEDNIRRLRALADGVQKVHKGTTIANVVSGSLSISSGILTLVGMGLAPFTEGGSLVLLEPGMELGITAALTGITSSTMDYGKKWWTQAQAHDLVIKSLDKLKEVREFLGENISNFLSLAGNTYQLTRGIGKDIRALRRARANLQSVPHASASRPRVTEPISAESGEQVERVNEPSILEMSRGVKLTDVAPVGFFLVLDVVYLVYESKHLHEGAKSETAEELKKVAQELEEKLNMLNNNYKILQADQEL
Method in brief: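 Percent viability comes from AlamarBlue (resazurin→resorufin) fluorescence interpolated on a standard curve of known parasite numbers, with no-APOL1 wells as 100%. Parasites (Lister 427 bloodstream form, 120,000/well, serum-free assay medium) meet 0.05 μg/mL APOL1 (~EC90). Compounds span a 10-point series, 0.1% DMSO final.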

APOL1 = molecular target: T2, APOL1 (Homo sapiens, UniProt O14791); experiment: Multi-Tox Assay (MultiTox-Fluor Multiplex Cytotoxicity Assay in tet-inducible APOL1 T-REx-HEK293 cells; Table 46 does not say which APOL1 variant G0/G1/G2); format: cell-based; conditions: APOL1 variant not given; for IC50: IP50 = IC50 for cell proliferation
T2 sequence (O14791 1-398 S342G/I384M): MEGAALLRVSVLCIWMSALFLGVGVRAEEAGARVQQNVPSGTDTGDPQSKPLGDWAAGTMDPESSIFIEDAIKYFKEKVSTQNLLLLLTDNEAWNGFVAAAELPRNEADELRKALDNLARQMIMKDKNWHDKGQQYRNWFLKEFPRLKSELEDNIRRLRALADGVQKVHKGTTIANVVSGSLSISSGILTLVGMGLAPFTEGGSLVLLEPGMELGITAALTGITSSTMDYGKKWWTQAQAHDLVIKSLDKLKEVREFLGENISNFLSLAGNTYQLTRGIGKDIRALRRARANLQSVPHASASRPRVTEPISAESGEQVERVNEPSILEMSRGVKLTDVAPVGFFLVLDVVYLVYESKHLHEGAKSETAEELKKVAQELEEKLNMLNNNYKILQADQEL

Compound	IC50 (APOL1 G1; Trypanosome Assay)	IC50 (APOL1)	Emax (APOL1 G1; Trypanosome Assay)	Multi-Tox Assay Max Activity (%) (APOL1)	Trypanosome Assay Max Activity (%) (APOL1 G1; Trypanosome Assay)	IC90 (APOL1)	Emax (APOL1 G1)
Cc1cncc([C@@H]2C[C@]3(C[C@H](C)N2)OCCc2cc(Cl)sc23)c1 (racemic) [Compound 64]	< 50 nM	< 50 nM					
C[C@H]1C[C@@]2(C[C@@H](c3cnc(-c4ccccc4)o3)N1)OCCc1cc(Cl)sc12 (racemic) [Compound 70]	< 50 nM	< 50 nM	104%				
C[C@H]1C[C@@]2(C[C@@H](c3cn(C)nn3)N1)OCCc1cc(Cl)sc12 [Compound 1, (2′S,6′S,7S)-2-chloro-2′-methyl-6′-(1-methyltriazol-4-yl)spiro[4,5-dihydrothieno[2,3-c]pyran-7,4′-piperidine]]	< 50 nM	< 50 nM	124%				
C[C@H]1C[C@@]2(C[C@@H](c3cnn(CCO)c3)N1)OCCc1cc(Cl)sc12 (racemic) [Compound 56]	< 50 nM	< 50 nM	116%	99.8%			
C[C@H]1C[C@@]2(C[C@@H](c3cnccn3)N1)OCCc1cc(Cl)sc12 (racemic) [Compound 101]	50 to 500 nM	< 50 nM	114%	100.0%			
C[C@H]1C[C@@]2(C[C@@H](c3ccc(O)nc3)N1)OCCc1cc(Cl)sc12 (racemic) [Compound 68]	< 50 nM	< 50 nM	106%				
COc1ccc([C@@H]2C[C@]3(C[C@H](C)N2)OCCc2cc(Cl)sc23)cc1O (racemic) [Compound 99]	< 50 nM	< 50 nM	102%	99.0%			
C[C@H]1C[C@@]2(C[C@@H](c3cnn(CC(C)(CO)CO)c3)N1)OCCc1cc(Cl)sc12 (racemic) [Compound 103]	50 to 500 nM	< 50 nM	118%				
COCCn1cc([C@@H]2C[C@]3(C[C@H](C)N2)OCCc2cc(Cl)sc23)cn1 (racemic) [Compound 90]	< 50 nM	< 50 nM	104%				
Clc1cc2c(s1)C1(C[C@@H](C3CC3)N[C@@H](C3CC3)C1)OCC2 (single isomer, unassigned) [Compound 206]	50 to 500 nM	< 50 nM	104%				
C[C@H]1C[C@@]2(C[C@@H](c3ccc(N(C)C)nc3)N1)OCCc1cc(Cl)sc12 (racemic) [Compound 89]	< 50 nM	< 50 nM	101%				
C[C@H]1C[C@@]2(C[C@@H](c3cccc(C(N)=O)c3)N1)OCCc1cc(Cl)sc12 (racemic) [Compound 109]	50 to 500 nM	< 50 nM	100%	100.0%			
C[C@H]1C[C@@]2(C[C@@H](c3ccc(C(=O)NC4CC4)cc3)N1)OCCc1cc(Cl)sc12 (racemic) [Compound 71]	< 50 nM	< 50 nM	104%				
CC1CC2(CC(C3CC3(F)F)N1)OCCc1cc(Cl)sc12 (single isomer, unassigned) [Compound 213]	50 to 500 nM	50 to 500 nM		99.5%	98.7%	50 to 500 nM	
Cc1cc([C@@H]2C[C@]3(C[C@H](C)N2)OCCc2cc(Cl)sc23)on1 (racemic) [Compound 66]	< 50 nM	< 50 nM	103%				
COc1ccc(C2CC3(CC(C)N2)OCCc2cc(Cl)sc23)nn1 (mixture of isomers) [Compound 76]	< 50 nM	< 50 nM	106%				
Cc1nccnc1[C@@H]1C[C@]2(C[C@H](C)N1)OCCc1cc(Cl)sc12 (racemic) [Compound 164]	> 500 nM	> 500 nM	85%				
C[C@@H]1CC2(C[C@H](C)N1)OCCc1cc(C3CCCCC3)sc12 (single isomer, unassigned) [Compound 202]	> 500 nM	> 500 nM	19%				
COc1ccc([C@@H]2C[C@]3(C[C@H](C)N2)OCCc2cc(Cl)sc23)cn1 (racemic) [Compound 49]	< 50 nM	< 50 nM	104%				

Compound	IC50 (APOL1 G1; Trypanosome Assay)	IC50 (APOL1)	Emax (APOL1 G1; Trypanosome Assay)	Multi-Tox Assay Max Activity (%) (APOL1)	Trypanosome Assay Max Activity (%) (APOL1 G1; Trypanosome Assay)	IC90 (APOL1)	Emax (APOL1 G1)
Cc1cc([C@@H]2C[C@]3(C[C@H](C)N2)OCCc2cc(Cl)sc23)nn1C (racemic) [Compound 98]	< 50 nM	< 50 nM	110%	99.0%			
Cc1cc(O)ncc1[C@@H]1C[C@]2(C[C@H](C)N1)OCCc1cc(Cl)sc12 (racemic) [Compound 125]	50 to 500 nM	< 50 nM	103%	99.7%			
C[C@H]1C[C@@]2(C[C@@H](c3cnn(-c4ccccc4)c3)N1)OCCc1cc(Cl)sc12 (racemic) [Compound 65]	< 50 nM	< 50 nM	105%				
C[C@H]1C[C@@]2(C[C@@H](c3ccnc(O)c3)N1)OCCc1cc(Cl)sc12 (racemic) [Compound 112]	50 to 500 nM	< 50 nM	112%	100.0%			
C[C@H]1C[C@@]2(C[C@@H](c3ccc(O)c(F)c3)N1)OCCc1cc(Cl)sc12 (stereo in doubt) [Compound 51]	< 50 nM	< 50 nM	102%	99.7%			
CC1CC2(CC(c3cnn(CCS(C)(=O)=O)c3)N1)OCCc1cc(Cl)sc12 (centres unmarked) [Compound 46]	< 50 nM	< 50 nM	108%	99.0%			
CC1CC2(CC(c3ccc4c(c3)oc(=O)n4C)N1)OCCc1cc(Cl)sc12 (centres unmarked) [Compound 23]	< 50 nM	< 50 nM	116%	99.7%		< 50 nM	
C[C@@H]1C[C@]2(C[C@H](C)N1)OCC(O)c1cc(Cl)sc12 (mixture of isomers) [Compound 205, (2R,6S)-2-chloro-2′,6′-dimethyl-spiro[4,5-dihydrothieno[2,3-c]pyran-7,4′-piperidine]-4-ol]	50 to 500 nM	< 50 nM					106%
C[C@H]1C[C@@]2(C[C@@H](c3cccc4cn[nH]c34)N1)OCCc1cc(Cl)sc12 (racemic) [Compound 168]	> 500 nM	> 500 nM	54.5%				
C[C@H]1C[C@@]2(C[C@@H](c3ccc(O)cn3)N1)OCCc1cc(Cl)sc12 (racemic) [Compound 59]	< 50 nM	< 50 nM	116%	99.3%			
C[C@H]1C[C@@]2(C[C@@H](c3ccon3)N1)OCCc1cc(Cl)sc12 (racemic) [Compound 96]	< 50 nM	< 50 nM	104%				
COCCOCCOc1ccc([C@@H]2C[C@]3(C[C@H](C)N2)OCCc2cc(Cl)sc23)cc1 (racemic) [Compound 36]	< 50 nM	< 50 nM	118%	100.0%		< 50 nM	
COc1ccnc([C@@H]2C[C@]3(C[C@H](C)N2)OCCc2cc(Cl)sc23)n1 (racemic) [Compound 145]	50 to 500 nM	50 to 500 nM	88%				
CC1CC2(CC(c3cnn(CCS(C)(=O)=O)c3)N1)OCCc1sc(C(F)(F)F)cc12 (centres unmarked) [Compound 9]	50 to 500 nM	< 50 nM	108%	100.0%			
CC1CC2(CC(C3CC3)N1)OCCc1cc(Cl)sc12 (mixture of isomers) [Compound 211, (2S,6S)-2-chloro-2′-cyclopropyl-6′-methyl-spiro[4,5-dihydrothieno[2,3-c]pyran-7,4′-piperidine]]	50 to 500 nM	< 50 nM	113%	99.6%		50 to 500 nM	
C[C@H]1CC2(C[C@@H](c3cn(C)nn3)N1)OCCc1sc(Cl)cc12 (single isomer, unassigned) [Compound 173]	< 50 nM	< 50 nM	116%				
C[C@H]1C[C@@]2(C[C@@H](c3cn(C)nn3)N1)OC[C@H](O)c1cc(C(F)(F)F)sc12 [Compound 180]	< 50 nM	< 50 nM	102%				
CC1CC2(CC(c3cncnc3)N1)OCCc1cc(Cl)sc12 (centres unmarked) [Compound 45]	< 50 nM	< 50 nM	103%	100.0%			
C[C@H]1C[C@@]2(C[C@@H](c3cccn4ccnc34)N1)OCCc1cc(Cl)sc12 (stereo in doubt) [Compound 143]	50 to 500 nM	50 to 500 nM	101%	98.0%			
